Several values for one entry are separate records, joined by “and”; a condition that tells them apart may be missing. Identical values can stand only once.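 Following 48 hours of exposure in 96-well plates, responses at five concentrations were used to interpolate endpoints linearly. GI50 = concentration required for 50% inhibition of growth. At the TGI there is no net growth.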 A value given as a limit tells only on which side of the number the result lay.

The values that follow come from PubChem BioAssay (NCI).

The subject of the first experiment is A498 renal. The experiment in a line: growth of human tumour cells (NCI), 48 h.
Consider `CCN(CC)CCNC(=O)c1c(C)[nH]c(/C=C2\C(=O)Nc3ccc(F)cc32)c1C`, for which the GI50 is > 10 µM and 2.21 µM and 2.84 µM; the TGI was > 10 µM and 4.83 µM and 15.4 µM.

For `CCOC1Oc2ccccc2-c2oc(=O)c(Sc3ccc(C)cc3)cc21` (stereo not given), the GI50 is 34.4 µM and the TGI is more than 100 µM.

As to `C[C@H](Cn1ncnn1)Nc1ncc2cc(Oc3ccc(F)cc3F)c(=O)n(C)c2n1`, the GI50 is more than 25 µM and the TGI is more than 25 µM.

Regarding `CC1CCCc2c1nn(C(=O)/C=C(\N)c1ccccc1)c2N` (stereo not given), the GI50 was 9.64 µM and the TGI amounted to 90.5 µM.

As for `CCSc1nc(N)c2cn[nH]c2n1`, the GI50 was 20.7 µM and the TGI was determined as 50.2 µM.

For the molecule `COc1ccc(CC(C)C(C)Cc2ccc(OC)c(OC)c2)cc1OC` (stereo not given), the GI50 was more than 1400 µM and the TGI was more than 1400 µM.

For `Cc1ccc2c(c1)Sc1ccc(N=NN(C)C)cc1N2C`, the TGI is more than 100 µM.

In the case of `Cc1ncc(C(=O)Nc2ccc(CN3CCN(C)CC3)c(C(F)(F)F)c2)cc1C#Cc1cnc(NC2CC2)c2ncccc12`, the GI50 was 1.78 µM and the TGI is 5.56 µM.

`C=CCO/N=C/c1cc(NC(=S)c2ccoc2C)ccc1Cl` had a TGI of 58.6 µM.

Take `CCCCCCCCCCN=C(c1ccc(N(C)C)cc1)c1ccc(N(C)C)cc1`: the GI50 was 0.457 µM and the TGI is 6.33 µM.

Regarding `CCCCCCCCCCCCCCCCCCNC(=O)[C@H]1CSC(c2cccs2)N1` (stereo not given in full), the GI50 was more than 50 µM and the TGI was more than 50 µM.

`Cn1c2ccccc2c2c(=O)c3ccccc3[nH]c21`: the GI50 was 18 µM and the TGI turned out to be 64.8 µM.

Another experiment concerns MDA-MB-231 breast. The experiment is described as follows: growth of human tumour cells (NCI), 48 h.
With `CCN(CC)CCNC(=O)c1c(C)[nH]c(/C=C2\C(=O)Nc3ccc(F)cc32)c1C`, the GI50 is 7.2 µM and 3.26 µM and 3.52 µM; the TGI is > 10 µM and 6.68 µM and 14.5 µM.

`CCOC1Oc2ccccc2-c2oc(=O)c(Sc3ccc(C)cc3)cc21` (stereo not given): the GI50 was 16.9 µM and the TGI came out at 67.7 µM.

For `C[C@H](Cn1ncnn1)Nc1ncc2cc(Oc3ccc(F)cc3F)c(=O)n(C)c2n1`, the GI50 is more than 25 µM and the TGI is more than 25 µM.

In the case of `CC1CCCc2c1nn(C(=O)/C=C(\N)c1ccccc1)c2N` (stereo not given), the GI50 is 28.3 µM and the TGI was more than 100 µM.

For the molecule `CCSc1nc(N)c2cn[nH]c2n1`, the GI50 was 20.2 µM and the TGI is 69.8 µM.

With `COc1ccc(CC(C)C(C)Cc2ccc(OC)c(OC)c2)cc1OC` (stereo not given), the GI50 was 126 µM and the TGI is more than 1400 µM.

Consider `Cc1ccc2c(c1)Sc1ccc(N=NN(C)C)cc1N2C`, for which the TGI was more than 100 µM.

Take `Cc1ncc(C(=O)Nc2ccc(CN3CCN(C)CC3)c(C(F)(F)F)c2)cc1C#Cc1cnc(NC2CC2)c2ncccc12`: the GI50 was 0.582 µM and the TGI came to 1.12 µM.

`C=CCO/N=C/c1cc(NC(=S)c2ccoc2C)ccc1Cl`: the TGI is 30.1 µM.

Take `CCCCCCCCCCN=C(c1ccc(N(C)C)cc1)c1ccc(N(C)C)cc1`: the GI50 is 0.876 µM and the TGI amounted to 23.9 µM.

Consider `CCCCCCCCCCCCCCCCCCNC(=O)[C@H]1CSC(c2cccs2)N1` (stereo not given in full), for which the GI50 was 0.826 µM and the TGI was 1.59 µM.

As to `Cn1c2ccccc2c2c(=O)c3ccccc3[nH]c21`, the GI50 was 87.1 µM and the TGI was more than 100 µM.

A further experiment relates to OVCAR-8 ovarian. The experiment in a line: growth of human tumour cells (NCI), 48 h.
`CCN(CC)CCNC(=O)c1c(C)[nH]c(/C=C2\C(=O)Nc3ccc(F)cc32)c1C`: the GI50 was 9.05 µM and 2.81 µM and 6.09 µM; the TGI is > 10 µM and 6.95 µM and 23.1 µM.

As to `CCOC1Oc2ccccc2-c2oc(=O)c(Sc3ccc(C)cc3)cc21` (stereo not given), the GI50 is 51 µM and the TGI was more than 100 µM.

Regarding `C[C@H](Cn1ncnn1)Nc1ncc2cc(Oc3ccc(F)cc3F)c(=O)n(C)c2n1`, the GI50 is more than 25 µM and the TGI is more than 25 µM.

Take `CC1CCCc2c1nn(C(=O)/C=C(\N)c1ccccc1)c2N` (stereo not given): the GI50 is 8.5 µM and the TGI was more than 100 µM.

`CCSc1nc(N)c2cn[nH]c2n1`: the GI50 is 48.7 µM and the TGI is more than 100 µM.

Regarding `COc1ccc(CC(C)C(C)Cc2ccc(OC)c(OC)c2)cc1OC` (stereo not given), the GI50 was more than 1400 µM and the TGI was more than 1400 µM.

In turn, `Cc1ccc2c(c1)Sc1ccc(N=NN(C)C)cc1N2C` displayed a TGI of more than 100 µM.

As for `Cc1ncc(C(=O)Nc2ccc(CN3CCN(C)CC3)c(C(F)(F)F)c2)cc1C#Cc1cnc(NC2CC2)c2ncccc12`, the GI50 is 0.708 µM and the TGI is 1.54 µM.

`C=CCO/N=C/c1cc(NC(=S)c2ccoc2C)ccc1Cl` displayed a TGI of 33.9 µM.

Consider `CCCCCCCCCCN=C(c1ccc(N(C)C)cc1)c1ccc(N(C)C)cc1`, for which the GI50 is 2.09 µM and the TGI was more than 59.5 µM.

With `CCCCCCCCCCCCCCCCCCNC(=O)[C@H]1CSC(c2cccs2)N1` (stereo not given in full), the GI50 was 1.31 µM and the TGI turned out to be 3.34 µM.

`Cn1c2ccccc2c2c(=O)c3ccccc3[nH]c21`: the GI50 is more than 100 µM and the TGI is more than 100 µM.

Another experiment concerns HCT-15 colon. The experiment is described as follows: growth of human tumour cells (NCI), 48 h.
As to `CCN(CC)CCNC(=O)c1c(C)[nH]c(/C=C2\C(=O)Nc3ccc(F)cc32)c1C`, the GI50 is 1.22 µM and 1.23 µM and 1.13 µM; the TGI is > 10 µM and 20 µM and 13.3 µM.

For the molecule `CCOC1Oc2ccccc2-c2oc(=O)c(Sc3ccc(C)cc3)cc21` (stereo not given), the GI50 was 27.6 µM and the TGI is more than 100 µM.

Regarding `C[C@H](Cn1ncnn1)Nc1ncc2cc(Oc3ccc(F)cc3F)c(=O)n(C)c2n1`, the GI50 is more than 25 µM and the TGI is more than 25 µM.

In the case of `CC1CCCc2c1nn(C(=O)/C=C(\N)c1ccccc1)c2N` (stereo not given), the GI50 is 5.85 µM and the TGI is more than 100 µM.

On to `CCSc1nc(N)c2cn[nH]c2n1`, for which the GI50 was 41.7 µM and the TGI was more than 100 µM.

For `COc1ccc(CC(C)C(C)Cc2ccc(OC)c(OC)c2)cc1OC` (stereo not given), the GI50 is more than 1400 µM and the TGI is more than 1400 µM.

In turn, `Cc1ccc2c(c1)Sc1ccc(N=NN(C)C)cc1N2C` came in with a TGI of more than 100 µM.

As for `Cc1ncc(C(=O)Nc2ccc(CN3CCN(C)CC3)c(C(F)(F)F)c2)cc1C#Cc1cnc(NC2CC2)c2ncccc12`, the GI50 is 0.566 µM and the TGI came out at 1.1 µM.

Regarding `C=CCO/N=C/c1cc(NC(=S)c2ccoc2C)ccc1Cl`, the TGI came to 23.8 µM.

For `CCCCCCCCCCN=C(c1ccc(N(C)C)cc1)c1ccc(N(C)C)cc1`, the GI50 was 0.365 µM and the TGI is more than 100 µM.

For the molecule `CCCCCCCCCCCCCCCCCCNC(=O)[C@H]1CSC(c2cccs2)N1` (stereo not given in full), the GI50 is 2.08 µM and the TGI was more than 50 µM.

For `Cn1c2ccccc2c2c(=O)c3ccccc3[nH]c21`, the GI50 is 40.1 µM and the TGI is more than 100 µM.

A further experiment concerns NCI-H522 lung. The experiment in a line: growth of human tumour cells (NCI), 48 h.
Consider `CCN(CC)CCNC(=O)c1c(C)[nH]c(/C=C2\C(=O)Nc3ccc(F)cc32)c1C`, for which the GI50 was 6.2 µM and 3.52 µM and 2.73 µM; the TGI was > 10 µM and 6.92 µM and 6.1 µM.

For the molecule `CCOC1Oc2ccccc2-c2oc(=O)c(Sc3ccc(C)cc3)cc21` (stereo not given), the GI50 is 18.4 µM and the TGI amounted to 82.9 µM.

Turning to `C[C@H](Cn1ncnn1)Nc1ncc2cc(Oc3ccc(F)cc3F)c(=O)n(C)c2n1`, the GI50 was more than 25 µM and the TGI is more than 25 µM.

In the case of `CC1CCCc2c1nn(C(=O)/C=C(\N)c1ccccc1)c2N` (stereo not given), the GI50 is 13.6 µM and the TGI stood at 61.7 µM.

Regarding `CCSc1nc(N)c2cn[nH]c2n1`, the GI50 is 62 µM and the TGI was more than 100 µM.

Consider `COc1ccc(CC(C)C(C)Cc2ccc(OC)c(OC)c2)cc1OC` (stereo not given), for which the GI50 was 79.7 µM and the TGI is more than 1400 µM.

Molecule `Cc1ccc2c(c1)Sc1ccc(N=NN(C)C)cc1N2C` yielded a TGI of more than 100 µM.

In the case of `Cc1ncc(C(=O)Nc2ccc(CN3CCN(C)CC3)c(C(F)(F)F)c2)cc1C#Cc1cnc(NC2CC2)c2ncccc12`, the GI50 is 0.635 µM and the TGI stood at 1.23 µM.

`C=CCO/N=C/c1cc(NC(=S)c2ccoc2C)ccc1Cl` displayed a TGI of 23.7 µM.

Regarding `CCCCCCCCCCN=C(c1ccc(N(C)C)cc1)c1ccc(N(C)C)cc1`, the GI50 is 0.352 µM and the TGI turned out to be 5.94 µM.

As to `CCCCCCCCCCCCCCCCCCNC(=O)[C@H]1CSC(c2cccs2)N1` (stereo not given in full), the GI50 was 3.59 µM and the TGI was more than 50 µM.

`Cn1c2ccccc2c2c(=O)c3ccccc3[nH]c21`: the GI50 was more than 100 µM and the TGI was more than 100 µM.
